We go through two substances from patent US8530408B2, “Substrates of N-end rule ubiquitylation and methods for measuring the ubiquitylation of these substrate” (Meso Scale Technologies LLC, priority 2002, dated 2013).

In one experiment the test system is HSPC144 ubiquitylation. Nature of the experiment: ECL assay for N-end rule ubiquitylation of HSPC144. The format is biochemical. As to conditions: 1 mM inhibitor; rabbit reticulocyte lysate; 50 μM MG-132; 30° C.; FIG. 8(A),(B). The procedure:
(§1) Protein was produced from the plasmid DNA in a transcription-translation reaction mixture containing rabbit reticulocyte lysate and SP6 RNA polymerase (TNT SP6 Quick Mix, Promega) and that was further supplemented with 20 μM methionine, 8-30 μg/ml plasmid DNA, 20 μg/ml biotinylated Lys-tRNA (transcend tRNA, Promega), and 50 μM of the proteosome inhibitor MG-132 (Calbiochem) in a total volume of 12.5 μl. Ubiquitylation of newly synthesized proteins occurred in the same reaction mixtures and was driven by the ubiquitylation system present in reticulocyte lysates. An ECL-based ubiquitylation assay (described below) was used to determine if the newly synthesized protein was ubiquitylated. […]
(§2) The reactions were allowed to proceed for a desired period of time at 30° C. In some experiments, several reaction time points were analyzed. […] Thereafter the plate was washed three times with 20 mM Tris-HCl, 0.004% Triton X-100 followed by addition of 150 μl of a buffered solution containing tripropylamine (MSD Read Buffer, Meso-Scale Discovery, Gaithersburg Md.) into each well. ECL signals from labels bound to the electrode surfaces were measured using a Sector HTS instrument.
HSPC144 was produced using IMAGE clone #3907737 and analyzed for its ability to act as an N-end rule substrate by ECL assay as described in the Materials and Methods.

Experiment [1] deals with RGS4 ubiquitin/proteosome degradation via N-end rule pathway. Description: Denaturing gel analysis of N-end rule-dependent degradation of RGS4. As to conditions: [14C]-lysine, MG-132 omitted, SDS-PAGE time course, 30° C.; FIG. 2(C). Format: biochemical, rabbit. The protocol:
Proteins were synthesized as described in the previous section except that biotinylated Lys-tRNA was substituted with [^14C]-lysine, and MG-132 was omitted. The reactions were incubated at 30° C. for indicated times. They were stopped by transferring of aliquots of reactions into SDS-sample buffer. The samples were heated for 5 min at 95° C. and fractionated by SDS-PAGE on 4-20% gradient polyacrylamide gels. Gels were soaked in Amplify™ fluorographic reagent (Amersham Pharmacia Biotech), dried and exposed to X-ray films.
RGS4 was produced and characterized as an N-end rule substrate as described in the Materials and Methods section. RGS4 is a known Type 1 N-end rule ubiquitylation substrate (Davydov and Varshavsky, 2000, J. Biol. Chem., 275: 22931).

The subject of a further experiment is HMGN3 ubiquitylation. Description: ECL assay for N-end rule ubiquitylation of HMGN3. Format: biochemical. As to conditions: 1 mM inhibitor; HMGN3 from clones #3890883 and #4749335, effect most pronounced for clone #4749335; rabbit reticulocyte lysate; 50 μM MG-132; 30° C.; FIG. 10. The protocol:
as §1, §2
HMGN3 was produced using IMAGE clones #3890883 and #4749335 and analyzed for its ability to act as an N-end rule substrate by ECL assay as described in Materials and Methods.

The subject of another experiment is PinX1 ubiquitylation. Description: ECL assay for N-end rule ubiquitylation of PinX1. The format is biochemical. The settings on record: 1 mM inhibitor; rabbit reticulocyte lysate; 50 μM MG-132; 30° C.; FIG. 9(A),(B). The protocol:
as §1, §2
PinX1 was produced using IMAGE clone #3911679 and analyzed for its ability to act as an N-end rule substrate by ECL assay as described in the Materials and Methods.

The subject of another experiment is RGS4 ubiquitylation. Description: ECL assay for N-end rule ubiquitylation of RGS4. The format is biochemical. The settings on record: 1 mM inhibitor; rabbit reticulocyte lysate; 50 μM MG-132; 30° C.; FIG. 2(A),(B). The procedure:
as §1
(§3) The reactions were allowed to proceed for a desired period of time at 30° C. In some experiments, several reaction time points were analyzed. […] Thereafter the plate was washed three times with 20 mM Tris-HCl, 0.004% Triton X-100 followed by addition of 150 μl of a buffered solution containing tripropylamine (MSD Read Buffer, Meso-Scale Discovery, Gaithersburg Md.) into each well. ECL signals from labels bound to the electrode surfaces were measured using a Sector HTS instrument. […]

In a further experiment the test system is tau ubiquitylation. Description: ECL assay for N-end rule ubiquitylation of tau. Format: biochemical. The settings on record: 1 mM inhibitor; rabbit reticulocyte lysate; 50 μM MG-132; 30° C.; FIG. 3(A),(B). The protocol:
as §1, §3

Another experiment has as its system HMGN2 ubiquitylation. Nature of the experiment: ECL assay for N-end rule ubiquitylation of HMGN2. Format: biochemical. The settings on record: 1 mM inhibitor; rabbit reticulocyte lysate; 50 μM MG-132; 30° C.; FIG. 6(A),(B). The protocol:
as §1, §2
High Mobility Group Chromosomal Protein 17 (now renamed HMGN2) was produced using IMAGE clone #3455121 and analyzed for its ability to act as an N-end rule substrate by ECL assay as described in Materials and Methods. […]

Experiment [2] relates to synaptotagmin-like protein 2 ubiquitylation. Nature of the experiment: ECL assay for N-end rule ubiquitylation of synaptotagmin-like protein 2. The format is biochemical. The settings on record: 1 mM inhibitor; rabbit reticulocyte lysate; 50 μM MG-132; 30° C.; FIG. 5(A),(B). The protocol: as §1, §2
Synaptotagmin-like protein 2 was produced using IMAGE clone #3887550 and analyzed for its ability to act as an N-end rule substrate by ECL assay and by gel electrophores is as described in the Materials and Methods.

The next experiment concerns aprataxin ubiquitylation. Nature of the experiment: ECL assay for N-end rule ubiquitylation of aprataxin. The format is biochemical. The settings on record: 1 mM inhibitor (equivalent concentrations); rabbit reticulocyte lysate; 50 μM MG-132; 30° C.; FIG. 4(A),(B). The procedure: as §1, §2
Aprataxin was produced using IMAGE clone #3994375 and analyzed for its ability to act as an N-end rule substrate by ECL assay and by gel electrophoresis as described in the Materials and Methods.

A further experiment concerns cdc6 ubiquitylation. Nature of the experiment: ECL assay for N-end rule ubiquitylation of CDC6. Format: biochemical. The settings on record: 1 mM inhibitor; rabbit reticulocyte lysate; 50 μM MG-132; 30° C.; FIG. 7(A),(B). The protocol: as §1, §2
Cell Cycle Controller cdc6 was produced using IMAGE clone #3867414 and analyzed for its ability to act as an N-end rule substrate by ECL assay and by gel electrophoresis as described in the Materials and Methods.

For the substance Arg-β-Ala, in the experiment with HSPC144 ubiquitylation, the “% of HSPC144 ubiquitylation in the presence of specific N-end rule inhibitors compared to the reaction in the absence of the inhibitors” value was “inhibit HSPC ubiquitylation to a similar extent”. Also, the “accumulation of the C-terminal fragment of RGS4 having the N-terminal Met removed (autoradiogram)” value in experiment [1] is on record as “time dependent accumulation exclusively in the presence of Arg-β-Ala inhibitor”. In addition, the “% of HMGN3 ubiquitylation in the presence of specific N-End Rule inhibitors compared to the reaction in the absence of the inhibitors” value with HMGN3 ubiquitylation is “inhibit HMGN3 ubiquitylation to a greater extent”. The “% of PinX1 ubiquitylation in the presence of specific N-end rule inhibitors compared to the reaction in the absence of the inhibitors” value with PinX1 ubiquitylation is listed as “inhibit PinX1 ubiquitylation to a similar extent”. Besides, the “% of RGS4 ubiquitylation in the presence of specific N-end rule inhibitors compared to the reaction in the absence of the inhibitors” value with RGS4 ubiquitylation is given as “inhibit RGS4 ubiquitylation to a similar extent”. The “% of tau ubiquitylation in the presence of specific N-end rule inhibitors compared to the reaction in the absence of the inhibitors” value in the experiment with tau ubiquitylation is “inhibit tau ubiquitylation to a similar extent”. The “% of HMGN2 ubiquitylation in the presence of specific N-end rule inhibitors compared to the reaction in the absence of the inhibitors” value in the experiment with HMGN2 ubiquitylation was “inhibit HMGN2 ubiquitylation to a similar extent”. Also, the “% of synaptotagmin-like protein 2 ubiquitylation in the presence of specific N-end rule inhibitors compared to the reaction in the absence of the inhibitors” value in [2] was “little to no effect”. Besides, the “% of aprataxin ubiquitylation in the presence of specific N-end rule inhibitors compared to the reaction in the absence of the inhibitors” value with aprataxin ubiquitylation is “inhibit aprataxin ubiquitylation to a similar extent”. The “% of cdc6 ubiquitylation in the presence of specific N-end rule inhibitors compared to the reaction in the absence of the inhibitors” value in the experiment with cdc6 ubiquitylation is “inhibit cdc6 ubiquitylation to a similar extent”.

Turning to Trp-Ala, the “% of HSPC144 ubiquitylation in the presence of specific N-end rule inhibitors compared to the reaction in the absence of the inhibitors” value in the experiment on HSPC144 ubiquitylation was “no effect”. In addition, the “% of HMGN3 ubiquitylation in the presence of specific N-End Rule inhibitors compared to the reaction in the absence of the inhibitors” value in the experiment on HMGN3 ubiquitylation was “little effect”. Further, the “% of PinX1 ubiquitylation in the presence of specific N-end rule inhibitors compared to the reaction in the absence of the inhibitors” value in the experiment on PinX1 ubiquitylation is on record as “no effect”. For the same substance, in the experiment on RGS4 ubiquitylation, the “% of RGS4 ubiquitylation in the presence of specific N-end rule inhibitors compared to the reaction in the absence of the inhibitors” value is “little to no effect”. In addition, the “% of tau ubiquitylation in the presence of specific N-end rule inhibitors compared to the reaction in the absence of the inhibitors” value in the experiment with tau ubiquitylation was “little to no effect”. Besides, the “% of HMGN2 ubiquitylation in the presence of specific N-end rule inhibitors compared to the reaction in the absence of the inhibitors” value in the experiment on HMGN2 ubiquitylation is given as “little to no effect”. The “% of synaptotagmin-like protein 2 ubiquitylation in the presence of specific N-end rule inhibitors compared to the reaction in the absence of the inhibitors” value in [2] is given as “inhibit synaptotagmin-like protein 2 ubiquitylation to a similar extent”. The “% of aprataxin ubiquitylation in the presence of specific N-end rule inhibitors compared to the reaction in the absence of the inhibitors” value in the experiment on aprataxin ubiquitylation is recorded as “little to no effect”. Further, the “% of cdc6 ubiquitylation in the presence of specific N-end rule inhibitors compared to the reaction in the absence of the inhibitors” value in the experiment on cdc6 ubiquitylation was “smaller effect”.
